This note sets out measurements from ChEMBL document CHEMBL1142256, “Phosphoramidate derivatives of hydroxysteroids as inhibitors of prostate-specific membrane antigen” (Bioorg Med Chem Lett, 2008).

pIC50: −log10 of the molar value.

The target in the assay is Glutamate carboxypeptidase 2 (Homo sapiens, UniProt Q04609). Briefly: Inhibition of human PSMA.
Glutamate carboxypeptidase 2, sequence (Q04609 whole entry): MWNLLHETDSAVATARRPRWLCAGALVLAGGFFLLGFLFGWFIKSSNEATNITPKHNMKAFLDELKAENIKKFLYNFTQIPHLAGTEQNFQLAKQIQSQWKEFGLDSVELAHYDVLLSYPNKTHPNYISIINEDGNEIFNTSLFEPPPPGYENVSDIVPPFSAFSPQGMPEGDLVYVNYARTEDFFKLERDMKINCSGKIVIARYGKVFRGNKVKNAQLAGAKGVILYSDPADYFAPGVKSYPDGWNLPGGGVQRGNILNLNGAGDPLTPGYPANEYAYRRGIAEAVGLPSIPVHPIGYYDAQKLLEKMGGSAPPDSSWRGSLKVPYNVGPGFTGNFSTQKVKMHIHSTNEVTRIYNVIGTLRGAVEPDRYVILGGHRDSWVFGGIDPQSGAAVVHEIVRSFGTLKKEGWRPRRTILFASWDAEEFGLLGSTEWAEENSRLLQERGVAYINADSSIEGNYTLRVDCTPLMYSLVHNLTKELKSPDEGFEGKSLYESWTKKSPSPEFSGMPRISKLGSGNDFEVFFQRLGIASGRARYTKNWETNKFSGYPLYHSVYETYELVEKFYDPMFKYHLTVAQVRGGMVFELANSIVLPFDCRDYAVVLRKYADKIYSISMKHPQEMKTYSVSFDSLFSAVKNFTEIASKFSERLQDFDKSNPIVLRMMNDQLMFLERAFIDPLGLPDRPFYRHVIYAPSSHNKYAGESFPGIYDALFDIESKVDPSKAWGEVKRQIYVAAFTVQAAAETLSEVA
Compound `CC(C)CCC[C@@H](C)[C@H]1CC[C@H]2[C@@H]3CCC4C[C@@H](OP(=O)(O)N[C@@H](CCC(=O)O)C(=O)O)CC[C@]4(C)[C@H]3CC[C@]12C` (stereo partly specified) had a pIC50 of 6.36.

`CC(C)CCC[C@@H](C)[C@H]1CC[C@H]2[C@@H]3CCC4C[C@@H](OCCCOP(=O)(O)N[C@@H](CCC(=O)O)C(=O)O)CC[C@]4(C)[C@H]3CC[C@]12C` (stereo partly specified) gave a pIC50 of 6.90.

Take `C[C@]12CC[C@H](OCCCOP(=O)(O)N[C@@H](CCC(=O)O)C(=O)O)C[C@@H]1CC[C@@H]1[C@@H]2CC[C@]2(C)C(=O)CC[C@@H]12`: the negative-log IC50 (pIC50) was 6.36.

Turning to `C[C@]12CC[C@@H]3c4ccc(OC(=O)c5ccccc5)cc4CC[C@H]3[C@@H]1CC[C@@H]2OCCCOP(=O)(O)N[C@@H](CCC(=O)O)C(=O)O`, the negative logarithm of the IC50 (pIC50) is 6.24.

Compound `C[C@]12CC[C@@H]3c4ccc(OCCCOP(=O)(O)N[C@@H](CCC(=O)O)C(=O)O)cc4CC[C@H]3[C@@H]1CCC2=O` showed a pIC50 of 6.85.

Compound `C[C@]12CC[C@H](OP(=O)(O)N[C@@H](CCC(=O)O)C(=O)O)C[C@@H]1CC[C@@H]1[C@@H]2CC[C@]2(C)C(=O)CC[C@@H]12` showed a pIC50 of 6.24. Against the preceding compound, the pIC50 is 0.61 log units lower.

In general, pIC50 refers to −log10 of the IC50, conventionally taken in molar units. A higher pIC50 goes with a small IC50.
